In the NIST ThermoML archive (doi:10.1016/j.jct.2018.03.031):
“And” between values parts separate entries of the source, which are not always exact repeats. Identical values can stand only once. ± gives the expanded uncertainty stated by the source.

Columns and labels:
[1] = Molar enthalpy of transition or fusion; conditions: DSC
[2] = DSC
[3] = molar heat capacity at constant pressure; conditions: 101.33 kPa, Large sample (1 g) DSC

Row | Structure (SMILES) | molar heat capacity at constant pressure ([3]; 283.15 K, Liquid) | molar heat capacity at constant pressure ([3]; 288.15 K, Liquid) | molar heat capacity at constant pressure ([3]; 293.15 K, Liquid) | molar heat capacity at constant pressure ([3]; 298.15 K, Liquid) | molar heat capacity at constant pressure ([3]; 303.15 K, Liquid) | molar heat capacity at constant pressure ([3]; 308.15 K, Liquid) | molar heat capacity at constant pressure ([3]; 313.15 K, Liquid) | molar heat capacity at constant pressure ([3]; 318.15 K, Liquid) | molar heat capacity at constant pressure ([3]; 323.15 K, Liquid) | molar heat capacity at constant pressure ([3]; 328.15 K, Liquid) | molar heat capacity at constant pressure ([3]; 333.15 K, Liquid) | molar heat capacity at constant pressure ([3]; 338.15 K, Liquid) | further results
1 | CCCC[P+](CCCC)(CCCC)CCCC.FC(F)(F)C(F)(F)[P-](F)(F)(F)(C(F)(F)C(F)(F)F)C(F)(F)C(F)(F)F | – | – | – | – | – | – | – | – | – | – | – | – | Molar enthalpy of transition or fusion ([1]; Crystal 1): 1.86 ± 0.0717 kcal/mol; Molar enthalpy of transition or fusion ([1]; Crystal 2): 2.13 kcal/mol and 2.08 kcal/mol; Triple point temperature ([2]; Crystal 1): 342.15 ± 1 K; Triple point temperature ([2]; Crystal 2): 313.75 ± 0.8 K and 313.15 ± 1 K; molar heat capacity at constant pressure ([3]; 283.15 K, Crystal 2): 971 ± 24 J/K/mol; molar heat capacity at constant pressure ([3]; 288.15 K, Crystal 2): 981.2 ± 24 J/K/mol; molar heat capacity at constant pressure ([3]; 293.15 K, Crystal 2): 990.3 ± 24 J/K/mol; molar heat capacity at constant pressure ([3]; 298.15 K, Crystal 2): 1003.2 ± 25 J/K/mol; molar heat capacity at constant pressure ([3]; 303.15 K, Crystal 2): 1018.4 ± 25 J/K/mol; molar heat capacity at constant pressure ([3]; 323.15 K, Crystal 1): 1029.4 ± 25 J/K/mol; molar heat capacity at constant pressure ([3]; 328.15 K, Crystal 1): 1049.8 ± 26 J/K/mol
2 | CCn1cc[n+](C)c1.O=S(=O)([N-]S(=O)(=O)C(F)(F)F)C(F)(F)F | 521 ± 13 J/K/mol | 522.6 ± 13 J/K/mol | 524.2 ± 13 J/K/mol | 526.4 ± 13 J/K/mol | 528.5 ± 13 J/K/mol | 530.7 ± 13 J/K/mol | 532.5 ± 13 J/K/mol | 534.8 ± 13 J/K/mol | 536.3 ± 13 J/K/mol | 538.9 ± 13 J/K/mol | 540.2 ± 13 J/K/mol | 541.7 ± 13 J/K/mol | –
3 | COCC[N+]1(C)CCCC1.O=S(=O)([N-]S(=O)(=O)C(F)(F)F)C(F)(F)F | 575.3 ± 14 J/K/mol | 578.9 ± 14 J/K/mol | 580.3 ± 14 J/K/mol | 582.3 ± 14 J/K/mol | 584.7 ± 14 J/K/mol | 586.5 ± 14 J/K/mol | 588.9 ± 14 J/K/mol | 591.3 ± 14 J/K/mol | 593.2 ± 14 J/K/mol | 596.3 ± 15 J/K/mol | 597.5 ± 15 J/K/mol | 602.6 ± 15 J/K/mol | –
4 | CCCC[N+]1(C)CCCC1.O=S(=O)([O-])C(F)(F)F [1-butyl-1-methylpyrrolidinium trifluoromethanesulfonate] | 436.5 ± 11 J/K/mol | 438.3 ± 11 J/K/mol | 439.9 ± 11 J/K/mol | 442.7 ± 11 J/K/mol | 445.3 ± 11 J/K/mol | 447.8 ± 11 J/K/mol | 452.2 ± 11 J/K/mol | 455.3 ± 11 J/K/mol | 457.2 ± 11 J/K/mol | 460 ± 11 J/K/mol | 461.9 ± 11 J/K/mol | 464.6 ± 11 J/K/mol | –
5 | CCCCn1cc[n+](C)c1C.O=S(=O)([O-])C(F)(F)F [1-butyl-2,3-dimethylimidazolium trifluoromethanesulfonate] | – | – | – | – | – | – | – | – | 472.2 ± 12 J/K/mol | 474.3 ± 12 J/K/mol | 475.2 ± 12 J/K/mol | 478.7 ± 12 J/K/mol | Molar enthalpy of transition or fusion ([1]; Crystal 1): 3.59 kcal/mol; Molar enthalpy of transition or fusion ([1]; Crystal 2): 1.29 kcal/mol and 1.7 kcal/mol; Triple point temperature ([2]; Crystal 1): 315.25 ± 0.8 K and 316.15 ± 1 K; Triple point temperature ([2]; Crystal 2): 307.45 ± 0.8 K and 306.15 ± 1 K; molar heat capacity at constant pressure ([3]; 283.15 K, Crystal 2): 381.1 ± 9.4 J/K/mol; molar heat capacity at constant pressure ([3]; 288.15 K, Crystal 2): 394.6 ± 9.7 J/K/mol; molar heat capacity at constant pressure ([3]; 293.15 K, Crystal 2): 407.1 ± 10 J/K/mol
6 | CCCCCCOS(=O)(=O)[O-].CC[n+]1ccn(C)c1 [3-ethyl-1-methyl-1H-imidazolium hexyl sulfate] | 505.2 ± 12 J/K/mol | 508.3 ± 12 J/K/mol | 509.1 ± 12 J/K/mol | 513.9 ± 13 J/K/mol | 517.4 ± 13 J/K/mol | 520.2 ± 13 J/K/mol | 523.1 ± 13 J/K/mol | 526 ± 13 J/K/mol | 528.4 ± 13 J/K/mol | 531.5 ± 13 J/K/mol | 534 ± 13 J/K/mol | 537.6 ± 13 J/K/mol | –
7 | CCCCO [butan-1-ol] | 168 ± 4.1 J/K/mol | 171 ± 4.2 J/K/mol | 174.1 ± 4.3 J/K/mol | 177.9 ± 4.4 J/K/mol | 181.1 ± 4.4 J/K/mol | 184.5 ± 4.5 J/K/mol | 187.8 ± 4.6 J/K/mol | 191.4 ± 4.7 J/K/mol | 196 ± 4.8 J/K/mol | 200.1 ± 4.9 J/K/mol | 204.1 ± 5 J/K/mol | 208.4 ± 5.1 J/K/mol | –
